Laboratory results: paper PMC314469, “Protein Interaction Networks by Proteome Peptide Scanning” (PLoS Biology, 2004)

Test system: Myo5 SH3 domain
Assay: SPOT analysis of cellulose-bound peptides (WISE), Myo5 SH3 domain (Dataset S4)
Assay type: binding, Saccharomyces cerevisiae
Conditions: SPOT analysis of cellulose-bound 14-mer yeast proteome peptides, Myo5 SH3 domain; normalized value; mean where the peptide was synthesized more than once

Sequence	The normalized value in BLU units
IAGMLMVPESPRFL	255.1 BLU
QFSGLLEPSLPNNM	84.4 BLU
IGKSKSAPPIPEDT	243.5 BLU
GFVFFIAPHLPVDL	507.5 BLU
TPTPHPHPHTPHPH	157.9 BLU
IPVGYVTPKFPSLY	21.6 BLU
REASLDIPYKPIIA	176.1 BLU
TWKMHLWPVSPPQL	224.0 BLU
KAIVWRLPKMPKIK	515.4 BLU
PLTTLPPPRLPSIQ	2788.2 BLU
RFSSRRAPIAPSGK	564.4 BLU
PLPTFSAPSLPQQS	46960.5 BLU
QFQKLVPPTLPENV	153.9 BLU
MLKALFTPLIPVSF	257.0 BLU
EAYRLNYPELPRLT	125.1 BLU
TELLKTLPFYPTPS	77.3 BLU

Sequence	The normalized value in BLU units
SPLSWSGPLTPPTF	168.0 BLU
HNAAKPIPHVPQAS	62.3 BLU
NFPSLIDPHVPTYG	97.4 BLU
IMDAKFHPFKPQLF	246.2 BLU
KPLNLSKPISPPPS	254.3 BLU
KTKKKTVPVKPLQL	358.9 BLU
KAPYLVQPNVPEKH	130.6 BLU
HPEYLSLPFEPYCF	212.9 BLU
NPFPFPIPEIPSTQ	86.5 BLU
MSWCKERPECPLCR	268.5 BLU
NSGEKIYPQEPPIS	111.7 BLU
ILQILFEPMPPFNS	200.5 BLU
PPMAYNRPVYPPPQ	6717.1 BLU
KLDPLGEPFDPNKH	275.7 BLU
IPTSHAPPLPPTAP	43593.6 BLU

Same assay, conditions: SPOT analysis of cellulose-bound peptides probed with Myo5 SH3 domain; normalized value

Sequence	The normalized value in BLU units (SPOT analysis, Myo5 SH3)
EEMGMEEPQAPEAF	127.9 BLU
AELMLRIPYLPGQN	236.4 BLU
IATMYPIPAYPDLL	96.9 BLU
SPRHYNVPSSPIAP	232.7 BLU
NEIELLRPRSPVQK	125.6 BLU
SPKKHVSPSRPPSV	1427.8 BLU
SATGWLKPAVPIQW	94.6 BLU
EWPGLDPPYIPLDF	62.7 BLU
VLIKFVIPVYPSLP	561.8 BLU
PPPPMGQPKDPKFE	248.1 BLU
SPSTMDFPKLPSFQ	466.9 BLU
KELPFTGPSIPFEN	338.9 BLU
SPRCLPTPILPSMS	192.8 BLU
LLKGYIPPYKPIVK	168.7 BLU
KPAVLHYPPIPASA	183.1 BLU
KLPKLNVPLNPKGK	304.7 BLU
SLISMETPEQPHQQ	146.8 BLU
LAKDLIVPRRPEWN	117125.4 BLU
VARPLSVPGSPRDL	186.0 BLU
EPPSWKPPDLPIRL	86972.2 BLU
VPDQLLTPLQPYTI	168.3 BLU
MLFSWPYPEAPIEG	126.4 BLU
KFTDMQVPKGPVCP	197.0 BLU
IEFDLSKPFTPFQQ	134.1 BLU
YLNSLSEPLVPLAL	131.6 BLU
GLLTYKGPKVPYQK	150.1 BLU
HFYEYVYPSLPFIE	152.0 BLU
IEPDFIEPDAPLAA	61.4 BLU
LWKPLVYPTCPSEH	185.3 BLU

Same assay, conditions: SPOT analysis of membrane-bound peptides, Myo5 SH3 domain; normalized value (see methods)

Sequence	The normalized value in BLU units
ILAVKKNPQSPMYT	175.4 BLU
FVSPRRAPKPPSYP	1581.6 BLU
NQIARQIPFQPWYL	247.7 BLU
RRHNRQHPPYPHSG	1287.6 BLU
PIGSRYNPNLPVTE	187.4 BLU
DLSLRYAPNLPRVI	249.6 BLU
ASKHKMFPFNPAKI	953.1 BLU
YVKERRPPPPPPLL	15869.6 BLU
LDKGKHVPSKPVSN	200.9 BLU
DFIGRKSPDLPEYL	138.7 BLU
LVGLKYEPLFPYFA	124.8 BLU
VVPERVKPAPPVSR	149.8 BLU
DKFIKLIPMRPVLI	252.9 BLU
FYDFRSLPKVPTTQ	336.7 BLU
TTRRKKDPNAPKRR	999.1 BLU
CKYNRQHPANPAAA	189.3 BLU
HFNTKKIPELPSQF	466.9 BLU
PTANKYAPVSPTVQ	191.4 BLU
FYKEKAKPLEPILD	87.7 BLU
VEKRKFTPIEPSLL	171.2 BLU

Sequence	The normalized value in BLU units
NNLKKRPPTAPQRK	418.9 BLU
REGPKSCPRGPLCP	188.5 BLU
LAPKREAPKPPANT	116079.9 BLU
EKNARGIPQAPFIE	135.6 BLU
AGPRKYIPRAPAQG	194.7 BLU
SETARKVPPIPTQI	420.1 BLU
KIVERGPPYPPDLR	137.7 BLU
KFFKREYPDIPMIA	154.6 BLU
DSVLRQKPDKPRPI	134.9 BLU
EEQVKCNPNRPIYW	110.0 BLU
KSLQKFEPRYPKTA	244.9 BLU
NDLVKRFPEQPPLR	21447.2 BLU
KLNKRVLPSKPKKS	918.8 BLU
GFQDRSLPHFPKNS	178.5 BLU
ISHNKLSPSEPILC	206.2 BLU
RDDVKRTPFIPESV	171.1 BLU
AALVKFVPSKPMCV	280.9 BLU
VASSRTEPSTPSRP	178.5 BLU
KYCFKLVPPQPGSK	218.8 BLU
LNGLKSSPADPHLS	152.9 BLU

Same assay, conditions: SPOT analysis of membrane-synthesized peptides probed with Myo5 SH3 domain; normalized value

Sequence	The normalized value in BLU units (SPOT analysis, Myo5 SH3)
SILNRCVPKRPTID	132.7 BLU
ITSIRGSPSLPKNK	370.3 BLU
NYHHRETPPPPPSN	317.8 BLU
KMSAKNTPKHPVDI	307.2 BLU
FLQDRVIPIFPHYP	260.9 BLU
KNPTKSPPPPPSPS	27847.4 BLU
ATGKRKLPGWPSAD	136.1 BLU
PSSKKNKPNPPPGS	106.9 BLU
AFVPKRKPSLPQLA	1744.9 BLU
TKFTKPKPKQPVLP	445.1 BLU
LSRSKPLPLTPNSK	323.9 BLU
EEKVKRTPPLPPVP	586.7 BLU
IESLREIPYGPDFD	115.6 BLU
AKTNKNVPVLPTPG	130.3 BLU
NIFQKQLPKMPKEY	276.2 BLU
VLKIKPLPYKPRGR	646.7 BLU
MKAYRANPPLPIDS	123.1 BLU
KNILKVCPVLPSIL	117.9 BLU
IKMSRSPPRPPSLK	17731.3 BLU
SDNSKSEPLPPVIT	130.5 BLU
DEPIRYAPGDPIEK	106.5 BLU

Sequence	The normalized value in BLU units (SPOT analysis, Myo5 SH3)
FEYSKYRPLTPSSE	143.0 BLU
QATGRRGPAPPPPP	607.2 BLU
YVNAKLDPSLPSQY	97.1 BLU
ETKKKWQPLPPEPL	255.8 BLU
LQQRRYYPIFPGSI	278.7 BLU
AKINKVSPEDPWVL	121.0 BLU
VLTVKMSPSLPDEI	229.5 BLU
NTLLKVVPQEPTAV	154.4 BLU
STDHRGTPANPGRV	257.1 BLU
DVNHRYPPMAPTTV	175.5 BLU
FGSNKNNPVPPELT	171.5 BLU
KITKKLGPKLPKAS	680.7 BLU
PGGPKFEPLYPREE	90.0 BLU
NPMQKPVPFVPVLD	420.2 BLU
LQNAKNDPLPPVIE	58.8 BLU
GKMVKWGPLRPFLS	644.7 BLU
FSKKKEAPEDPKNL	148.1 BLU
NLSLRYAPNLPPVI	778.6 BLU
DILKKESPDVPLFD	146.1 BLU
QIVNKPLPPLPVAG	248.9 BLU
FHPEKLTPYTPMTG	96.5 BLU
